Publication PMC9532562 (Acta Pharmaceutica Sinica. B, 2022)

Columns and labels:
[1] = molecular target: HDAC3 (Homo sapiens, UniProt O15379); test: HDAC enzyme inhibition assay; format: biochemical
[2] = molecular target: T1, HDAC10 (Homo sapiens, UniProt Q969S8); test: HDAC enzyme inhibition assay; format: biochemical
T1 sequence (Q969S8 1-669): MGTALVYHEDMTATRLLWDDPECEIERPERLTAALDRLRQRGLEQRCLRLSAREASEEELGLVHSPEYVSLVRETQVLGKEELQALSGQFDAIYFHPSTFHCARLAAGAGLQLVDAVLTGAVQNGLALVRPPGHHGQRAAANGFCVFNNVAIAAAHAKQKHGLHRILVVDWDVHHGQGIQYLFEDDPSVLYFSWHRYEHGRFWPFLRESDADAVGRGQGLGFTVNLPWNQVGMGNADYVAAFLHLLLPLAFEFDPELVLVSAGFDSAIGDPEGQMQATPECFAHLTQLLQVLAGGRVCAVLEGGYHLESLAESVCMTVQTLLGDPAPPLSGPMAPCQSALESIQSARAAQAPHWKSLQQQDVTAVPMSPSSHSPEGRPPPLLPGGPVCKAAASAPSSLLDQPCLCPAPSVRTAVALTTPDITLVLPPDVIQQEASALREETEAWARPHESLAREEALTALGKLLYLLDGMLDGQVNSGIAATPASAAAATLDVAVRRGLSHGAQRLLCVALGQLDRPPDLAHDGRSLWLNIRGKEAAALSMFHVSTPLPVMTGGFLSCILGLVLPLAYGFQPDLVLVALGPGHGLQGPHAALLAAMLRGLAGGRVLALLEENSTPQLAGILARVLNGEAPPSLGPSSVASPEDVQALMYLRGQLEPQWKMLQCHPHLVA

[3] = molecular target: HDAC1 (Homo sapiens, UniProt Q13547); test: HDAC enzyme inhibition assay; format: biochemical
HDAC1, sequence (Q13547 whole entry): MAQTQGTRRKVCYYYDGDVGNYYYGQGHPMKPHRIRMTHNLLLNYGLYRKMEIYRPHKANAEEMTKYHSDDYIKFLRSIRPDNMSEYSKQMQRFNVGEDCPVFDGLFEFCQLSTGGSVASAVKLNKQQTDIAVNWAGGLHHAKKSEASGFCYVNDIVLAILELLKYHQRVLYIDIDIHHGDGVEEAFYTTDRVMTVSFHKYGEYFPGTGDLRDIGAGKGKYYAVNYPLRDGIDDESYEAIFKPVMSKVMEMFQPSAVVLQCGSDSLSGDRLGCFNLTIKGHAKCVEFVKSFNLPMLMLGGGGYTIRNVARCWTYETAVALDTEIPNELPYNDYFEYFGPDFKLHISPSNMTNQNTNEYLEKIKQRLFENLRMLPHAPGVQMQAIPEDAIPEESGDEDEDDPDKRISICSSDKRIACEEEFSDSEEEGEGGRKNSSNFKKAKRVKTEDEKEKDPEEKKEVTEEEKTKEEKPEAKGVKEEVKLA

[4] = molecular target: HDAC4 (Homo sapiens, UniProt P56524); test: HDAC enzyme inhibition assay; format: biochemical
HDAC4, sequence (P56524 whole entry): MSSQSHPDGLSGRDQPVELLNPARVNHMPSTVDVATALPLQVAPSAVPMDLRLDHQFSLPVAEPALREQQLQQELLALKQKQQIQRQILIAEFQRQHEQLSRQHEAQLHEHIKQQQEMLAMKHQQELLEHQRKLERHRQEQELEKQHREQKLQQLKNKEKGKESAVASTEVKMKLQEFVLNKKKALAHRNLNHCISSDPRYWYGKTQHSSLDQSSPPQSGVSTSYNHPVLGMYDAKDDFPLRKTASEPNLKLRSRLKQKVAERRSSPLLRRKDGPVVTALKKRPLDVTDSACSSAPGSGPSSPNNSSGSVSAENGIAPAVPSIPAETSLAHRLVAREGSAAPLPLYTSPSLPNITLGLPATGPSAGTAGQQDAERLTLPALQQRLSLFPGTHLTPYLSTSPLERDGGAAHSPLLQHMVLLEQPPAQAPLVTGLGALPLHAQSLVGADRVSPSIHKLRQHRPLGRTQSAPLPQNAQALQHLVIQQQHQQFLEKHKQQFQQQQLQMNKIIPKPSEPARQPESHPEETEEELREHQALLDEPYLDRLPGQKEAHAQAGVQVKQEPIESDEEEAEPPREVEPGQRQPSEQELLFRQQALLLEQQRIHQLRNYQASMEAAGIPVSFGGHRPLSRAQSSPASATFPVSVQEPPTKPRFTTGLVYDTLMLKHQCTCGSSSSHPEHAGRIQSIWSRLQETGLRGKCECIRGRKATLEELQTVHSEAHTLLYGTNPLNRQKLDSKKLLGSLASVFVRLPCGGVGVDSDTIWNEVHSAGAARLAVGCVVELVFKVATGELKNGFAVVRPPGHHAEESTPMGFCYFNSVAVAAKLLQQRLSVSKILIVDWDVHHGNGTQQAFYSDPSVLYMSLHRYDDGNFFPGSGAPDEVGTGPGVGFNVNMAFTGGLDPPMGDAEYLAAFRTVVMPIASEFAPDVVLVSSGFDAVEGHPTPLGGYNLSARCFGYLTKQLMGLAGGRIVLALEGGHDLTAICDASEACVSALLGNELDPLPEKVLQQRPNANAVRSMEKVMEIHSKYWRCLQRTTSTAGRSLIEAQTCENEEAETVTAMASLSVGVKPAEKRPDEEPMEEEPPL

[5] = molecular target: T2, HDAC6 (Homo sapiens, UniProt Q9UBN7); test: HDAC enzyme inhibition assay; format: biochemical
T2 sequence (Q9UBN7 1-1215): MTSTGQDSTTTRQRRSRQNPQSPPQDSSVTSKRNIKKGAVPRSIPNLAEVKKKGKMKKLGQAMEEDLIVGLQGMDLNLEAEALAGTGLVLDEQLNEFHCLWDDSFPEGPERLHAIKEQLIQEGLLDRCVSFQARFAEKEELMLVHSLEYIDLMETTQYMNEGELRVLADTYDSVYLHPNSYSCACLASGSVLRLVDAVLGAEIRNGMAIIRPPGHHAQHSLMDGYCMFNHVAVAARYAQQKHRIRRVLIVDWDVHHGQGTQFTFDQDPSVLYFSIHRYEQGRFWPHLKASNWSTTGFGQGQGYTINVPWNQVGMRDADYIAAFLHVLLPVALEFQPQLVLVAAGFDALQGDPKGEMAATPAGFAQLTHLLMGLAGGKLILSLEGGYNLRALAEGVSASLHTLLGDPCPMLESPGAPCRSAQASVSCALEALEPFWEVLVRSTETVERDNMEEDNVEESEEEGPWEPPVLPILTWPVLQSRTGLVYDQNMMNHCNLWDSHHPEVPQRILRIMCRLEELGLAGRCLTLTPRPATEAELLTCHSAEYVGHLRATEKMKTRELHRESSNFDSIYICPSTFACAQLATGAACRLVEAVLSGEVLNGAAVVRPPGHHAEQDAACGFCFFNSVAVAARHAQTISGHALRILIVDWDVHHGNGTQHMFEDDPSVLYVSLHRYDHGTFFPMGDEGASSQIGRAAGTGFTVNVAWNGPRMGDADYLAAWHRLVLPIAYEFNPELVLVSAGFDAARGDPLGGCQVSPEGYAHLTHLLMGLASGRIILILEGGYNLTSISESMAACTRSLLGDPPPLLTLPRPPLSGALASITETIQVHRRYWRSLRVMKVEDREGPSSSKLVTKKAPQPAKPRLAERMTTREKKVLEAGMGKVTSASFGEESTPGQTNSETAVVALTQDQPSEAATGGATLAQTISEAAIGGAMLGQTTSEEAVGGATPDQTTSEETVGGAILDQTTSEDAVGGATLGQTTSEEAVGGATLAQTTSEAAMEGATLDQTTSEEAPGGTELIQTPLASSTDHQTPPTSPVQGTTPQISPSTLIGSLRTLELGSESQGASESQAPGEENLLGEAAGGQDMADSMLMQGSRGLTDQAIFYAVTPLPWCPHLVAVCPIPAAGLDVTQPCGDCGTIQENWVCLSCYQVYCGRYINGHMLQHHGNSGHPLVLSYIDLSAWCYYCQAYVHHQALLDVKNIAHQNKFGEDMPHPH

[6] = molecular target: T3, HDAC8 (Homo sapiens, UniProt Q9BY41); test: HDAC enzyme inhibition assay; format: biochemical
T3 sequence (Q9BY41 1-377): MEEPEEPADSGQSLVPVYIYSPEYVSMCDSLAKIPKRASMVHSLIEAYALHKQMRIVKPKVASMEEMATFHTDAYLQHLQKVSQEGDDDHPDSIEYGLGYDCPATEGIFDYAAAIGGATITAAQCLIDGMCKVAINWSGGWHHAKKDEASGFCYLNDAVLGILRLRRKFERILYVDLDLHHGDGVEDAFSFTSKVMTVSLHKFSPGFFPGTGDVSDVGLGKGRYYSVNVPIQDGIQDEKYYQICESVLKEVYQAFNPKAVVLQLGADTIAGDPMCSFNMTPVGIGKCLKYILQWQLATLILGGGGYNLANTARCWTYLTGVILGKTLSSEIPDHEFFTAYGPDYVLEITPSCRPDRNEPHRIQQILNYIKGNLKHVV

[7] = molecular target: HDAC5 (Homo sapiens, UniProt Q9UQL6); test: HDAC enzyme inhibition assay; format: biochemical
HDAC5, sequence (Q9UQL6 whole entry): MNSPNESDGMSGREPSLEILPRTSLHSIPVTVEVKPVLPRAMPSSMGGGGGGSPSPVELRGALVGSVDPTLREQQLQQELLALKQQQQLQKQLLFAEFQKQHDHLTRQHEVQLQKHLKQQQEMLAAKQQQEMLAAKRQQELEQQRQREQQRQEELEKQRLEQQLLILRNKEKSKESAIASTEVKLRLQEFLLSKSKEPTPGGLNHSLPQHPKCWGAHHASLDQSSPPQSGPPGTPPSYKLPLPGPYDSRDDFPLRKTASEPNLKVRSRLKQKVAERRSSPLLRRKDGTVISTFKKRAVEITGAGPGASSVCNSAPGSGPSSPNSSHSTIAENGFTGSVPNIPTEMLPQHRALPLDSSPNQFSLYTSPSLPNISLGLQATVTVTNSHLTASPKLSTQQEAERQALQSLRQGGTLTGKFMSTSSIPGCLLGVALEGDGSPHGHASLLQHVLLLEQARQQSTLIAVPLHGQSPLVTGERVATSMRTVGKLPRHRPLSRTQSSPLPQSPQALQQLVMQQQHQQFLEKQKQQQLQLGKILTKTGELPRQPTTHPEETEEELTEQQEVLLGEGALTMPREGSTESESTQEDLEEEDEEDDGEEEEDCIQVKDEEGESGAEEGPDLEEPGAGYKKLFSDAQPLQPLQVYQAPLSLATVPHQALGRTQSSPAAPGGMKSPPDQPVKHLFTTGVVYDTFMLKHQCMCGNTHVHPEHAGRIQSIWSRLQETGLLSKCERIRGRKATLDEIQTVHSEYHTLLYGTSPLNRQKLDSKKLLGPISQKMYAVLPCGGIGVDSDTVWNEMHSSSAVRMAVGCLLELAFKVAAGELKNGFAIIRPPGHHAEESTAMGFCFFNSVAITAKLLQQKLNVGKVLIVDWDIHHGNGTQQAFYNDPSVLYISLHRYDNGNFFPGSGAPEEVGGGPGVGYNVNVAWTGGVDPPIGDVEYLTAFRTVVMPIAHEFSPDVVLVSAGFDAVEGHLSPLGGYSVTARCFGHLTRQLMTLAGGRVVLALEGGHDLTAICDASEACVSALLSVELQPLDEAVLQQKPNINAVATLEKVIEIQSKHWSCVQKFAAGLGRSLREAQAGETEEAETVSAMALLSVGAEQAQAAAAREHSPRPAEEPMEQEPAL

[8] = molecular target: T4, HDAC11 (Homo sapiens, UniProt Q96DB2); test: HDAC enzyme inhibition assay; format: biochemical
T4 sequence (Q96DB2 1-347): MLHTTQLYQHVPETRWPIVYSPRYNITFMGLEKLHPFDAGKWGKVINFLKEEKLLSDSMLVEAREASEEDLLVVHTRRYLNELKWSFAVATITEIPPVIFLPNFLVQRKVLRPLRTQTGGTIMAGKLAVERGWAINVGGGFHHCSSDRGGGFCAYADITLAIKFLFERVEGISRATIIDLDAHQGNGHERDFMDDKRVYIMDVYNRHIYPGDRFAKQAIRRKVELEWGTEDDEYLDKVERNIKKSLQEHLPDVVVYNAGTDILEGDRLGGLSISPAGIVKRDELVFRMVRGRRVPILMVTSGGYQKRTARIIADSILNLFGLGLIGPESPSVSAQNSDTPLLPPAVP

[9] = molecular target: T5, HDAC7 (Homo sapiens, UniProt Q8WUI4); test: HDAC enzyme inhibition assay; format: biochemical
T5 sequence (Q8WUI4 1-952): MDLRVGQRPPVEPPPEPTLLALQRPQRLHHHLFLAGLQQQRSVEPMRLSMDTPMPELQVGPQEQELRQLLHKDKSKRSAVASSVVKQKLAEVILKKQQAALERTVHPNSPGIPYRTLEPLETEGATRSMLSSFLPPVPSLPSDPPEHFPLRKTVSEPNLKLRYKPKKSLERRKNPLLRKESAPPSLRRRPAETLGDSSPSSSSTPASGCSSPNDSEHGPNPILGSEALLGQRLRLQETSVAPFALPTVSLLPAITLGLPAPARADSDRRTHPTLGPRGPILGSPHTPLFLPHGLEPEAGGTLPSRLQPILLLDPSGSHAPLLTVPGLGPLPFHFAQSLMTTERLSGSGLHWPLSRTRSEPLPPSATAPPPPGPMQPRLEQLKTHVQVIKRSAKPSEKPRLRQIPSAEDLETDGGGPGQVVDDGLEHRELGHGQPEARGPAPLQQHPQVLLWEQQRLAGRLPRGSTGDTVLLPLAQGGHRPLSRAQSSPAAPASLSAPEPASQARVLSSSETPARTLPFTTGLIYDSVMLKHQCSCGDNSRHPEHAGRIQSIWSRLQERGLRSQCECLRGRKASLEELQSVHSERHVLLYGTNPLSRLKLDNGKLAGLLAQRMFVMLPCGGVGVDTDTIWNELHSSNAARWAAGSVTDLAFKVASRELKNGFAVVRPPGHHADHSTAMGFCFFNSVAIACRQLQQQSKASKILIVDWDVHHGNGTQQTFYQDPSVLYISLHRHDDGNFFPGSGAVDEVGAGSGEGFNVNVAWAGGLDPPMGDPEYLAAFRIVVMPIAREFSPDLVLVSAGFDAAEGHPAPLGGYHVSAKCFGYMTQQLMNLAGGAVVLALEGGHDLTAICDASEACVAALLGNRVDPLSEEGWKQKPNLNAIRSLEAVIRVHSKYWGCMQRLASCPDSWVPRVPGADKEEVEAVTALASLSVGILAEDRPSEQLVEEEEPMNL

[10] = molecular target: HDAC2 (Homo sapiens, UniProt Q92769); test: HDAC enzyme inhibition assay; format: biochemical
HDAC2, sequence (Q92769 whole entry): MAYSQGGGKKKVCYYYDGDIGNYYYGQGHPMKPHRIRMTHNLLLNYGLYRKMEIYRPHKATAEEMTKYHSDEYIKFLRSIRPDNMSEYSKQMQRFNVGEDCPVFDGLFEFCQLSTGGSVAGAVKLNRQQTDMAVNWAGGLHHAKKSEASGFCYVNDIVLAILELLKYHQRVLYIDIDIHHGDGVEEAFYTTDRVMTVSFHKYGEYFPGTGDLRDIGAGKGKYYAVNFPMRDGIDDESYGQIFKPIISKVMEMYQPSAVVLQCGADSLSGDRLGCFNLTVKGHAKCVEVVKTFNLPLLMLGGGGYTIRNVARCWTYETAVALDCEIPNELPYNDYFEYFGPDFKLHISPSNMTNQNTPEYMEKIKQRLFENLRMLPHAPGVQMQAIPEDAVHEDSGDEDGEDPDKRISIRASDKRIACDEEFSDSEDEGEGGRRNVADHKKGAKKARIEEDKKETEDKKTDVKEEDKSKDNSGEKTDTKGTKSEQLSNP

[11] = molecular target: HDAC9 (Homo sapiens, UniProt Q9UKV0); test: HDAC enzyme inhibition assay; format: biochemical
HDAC9, sequence (Q9UKV0 whole entry): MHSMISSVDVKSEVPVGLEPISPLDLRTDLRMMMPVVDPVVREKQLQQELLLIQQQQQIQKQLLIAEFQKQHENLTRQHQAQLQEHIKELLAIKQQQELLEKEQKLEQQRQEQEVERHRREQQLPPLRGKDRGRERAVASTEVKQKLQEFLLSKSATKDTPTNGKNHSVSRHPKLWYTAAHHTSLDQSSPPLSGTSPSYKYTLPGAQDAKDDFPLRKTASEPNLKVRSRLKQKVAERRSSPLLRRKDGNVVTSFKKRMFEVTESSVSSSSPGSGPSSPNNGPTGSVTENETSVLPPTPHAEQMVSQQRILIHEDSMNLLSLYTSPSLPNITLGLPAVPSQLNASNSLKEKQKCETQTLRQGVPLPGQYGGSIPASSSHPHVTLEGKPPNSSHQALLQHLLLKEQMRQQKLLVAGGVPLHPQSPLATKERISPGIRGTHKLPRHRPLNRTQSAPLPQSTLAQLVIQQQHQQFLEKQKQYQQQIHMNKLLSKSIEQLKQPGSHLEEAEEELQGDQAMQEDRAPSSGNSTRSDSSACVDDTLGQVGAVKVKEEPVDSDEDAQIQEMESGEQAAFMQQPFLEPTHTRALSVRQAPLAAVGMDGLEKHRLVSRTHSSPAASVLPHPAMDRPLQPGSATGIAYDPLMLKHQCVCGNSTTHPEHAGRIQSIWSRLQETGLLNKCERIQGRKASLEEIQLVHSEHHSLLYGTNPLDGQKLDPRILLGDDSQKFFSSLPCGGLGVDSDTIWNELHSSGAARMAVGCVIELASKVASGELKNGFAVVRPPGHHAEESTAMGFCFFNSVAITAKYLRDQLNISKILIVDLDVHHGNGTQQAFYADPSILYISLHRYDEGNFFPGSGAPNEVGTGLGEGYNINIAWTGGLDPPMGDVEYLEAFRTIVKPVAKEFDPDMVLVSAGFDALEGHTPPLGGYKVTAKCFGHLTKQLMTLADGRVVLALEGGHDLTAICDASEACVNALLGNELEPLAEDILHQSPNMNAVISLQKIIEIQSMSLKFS

[12] = molecular target: CYP2C9 (Homo sapiens, UniProt P11712); test: CYP inhibition assay, pooled human liver microsomes; format: in vitro ADME; settings: probe diclofenac
[13] = molecular target: CYP3A4 (Homo sapiens, UniProt P08684); test: as above; format: in vitro ADME; settings: probe testosterone
[14] = molecular target: CYP2C19 (Homo sapiens, UniProt P33261); test: as above; format: in vitro ADME; settings: probe S-mephenytoin
[15] = molecular target: CYP2D6 (Homo sapiens, UniProt P10635); test: as above; format: in vitro ADME; settings: probe dextromethorphan
[16] = Plasma protein binding; format: in vitro ADME; settings: human
[17] = molecular target: T6, CYP1A2 (Homo sapiens, UniProt P05177); test: CYP inhibition assay, pooled human liver microsomes; format: in vitro ADME; settings: probe phenacetin
T6 sequence (P05177 1-516): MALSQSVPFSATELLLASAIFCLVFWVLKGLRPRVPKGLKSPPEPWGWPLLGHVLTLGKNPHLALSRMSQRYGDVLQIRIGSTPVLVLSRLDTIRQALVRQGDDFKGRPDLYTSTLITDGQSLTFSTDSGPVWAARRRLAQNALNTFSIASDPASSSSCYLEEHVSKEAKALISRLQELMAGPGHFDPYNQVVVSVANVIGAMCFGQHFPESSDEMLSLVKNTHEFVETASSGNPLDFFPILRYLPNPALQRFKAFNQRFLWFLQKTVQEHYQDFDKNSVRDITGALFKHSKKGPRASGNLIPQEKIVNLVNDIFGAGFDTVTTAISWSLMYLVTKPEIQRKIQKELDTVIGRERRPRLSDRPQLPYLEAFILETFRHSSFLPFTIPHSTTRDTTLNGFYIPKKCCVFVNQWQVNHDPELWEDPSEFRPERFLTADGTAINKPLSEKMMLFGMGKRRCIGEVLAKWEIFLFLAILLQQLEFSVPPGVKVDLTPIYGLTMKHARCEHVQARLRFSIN

[18] = LogD determination, shake flask method; format: physicochemical; settings: n-octanol/PBS, pH 7.4
[19] = In vivo brain/plasma PK studies; design: species or system C57BL/6 mice; settings: C57BL/6, mouse, ip, 1 mg/kg
[20] = Hepatocyte stability; format: in vitro ADME; settings: human, hepatocytes

HDAC3, sequence (O15379 whole entry): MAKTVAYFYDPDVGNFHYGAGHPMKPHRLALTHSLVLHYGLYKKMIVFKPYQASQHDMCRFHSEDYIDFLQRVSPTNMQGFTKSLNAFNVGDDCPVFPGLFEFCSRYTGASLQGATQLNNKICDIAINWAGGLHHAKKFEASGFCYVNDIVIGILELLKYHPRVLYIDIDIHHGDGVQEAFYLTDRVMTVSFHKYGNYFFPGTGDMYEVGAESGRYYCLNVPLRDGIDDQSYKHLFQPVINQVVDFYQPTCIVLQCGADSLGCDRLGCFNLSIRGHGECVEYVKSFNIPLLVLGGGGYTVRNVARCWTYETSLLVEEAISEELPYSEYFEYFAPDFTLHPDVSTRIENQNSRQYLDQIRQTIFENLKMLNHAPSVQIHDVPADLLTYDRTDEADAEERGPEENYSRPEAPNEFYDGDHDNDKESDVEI
HDAC3, sequence (Q9Y618 395-489 partner limits assumed): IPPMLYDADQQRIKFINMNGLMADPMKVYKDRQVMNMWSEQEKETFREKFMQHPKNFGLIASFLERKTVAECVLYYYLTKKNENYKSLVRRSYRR

Row | SMILES | IC50 [1] [µM] | IC50 [2] [µM] | IC50 [3] [µM] | IC50 [4] [µM] | IC50 [5] [µM] | IC50 [6] [µM] | IC50 [7] [µM] | IC50 [8] [µM] | IC50 [9] [µM] | IC50 [10] [µM] | IC50 [11] [µM] | also measured
1 | COc1cc(C(=O)NO)ccc1CN1CCCCc2ccccc21 [15a, N-Hydroxy-3-methoxy-4-((2,3,4,5-tetrahydro-1H-benzo[b]azepin-1-yl)methyl)benzamide] | > 10 | > 10 | > 10 | > 10 | 6.46 | > 10 | > 10 | 9.52 | > 10 | > 10 | > 10 | –
2 | COc1cc(CN2CCCCc3ccccc32)ccc1C(=O)NO [15b, N-Hydroxy2-methoxy-4-((2,3,4,5-tetrahydro-1H-benzo[b]azepin-1-yl)methyl)benzamide] | > 10 | > 10 | > 10 | > 10 | 4.16 | 2.06 | > 10 | 3.52 | – | > 10 | > 10 | –
3 | O=C(NO)c1ccc(CN2CCCCc3ccccc32)cc1F [15d, 2-Fluoro-N-hydroxy-4-((2,3,4,5-tetrahydro-1H-benzo[b]azepin-1-yl)methyl)benzamide] | 2.46 | > 10 | > 10 | 3.56 | 0.0251 | 9.11 | > 10 | 5.42 | 3.02 | > 10 | > 10 | –
4 | O=C(NO)c1ccc(CN2CCCCc3ccccc32)c(F)c1 [15c, 3-Fluoro-N-hydroxy-4-((2,3,4,5-tetrahydro-1H-benzo[b]azepin-1-yl)methyl)benzamide] | 2.96 | 8.96 | 7.82 | 2.12 | 0.0052 | 1.68 | 2.44 | 4.38 | 0.609 | > 10 | 3.15 | inhibition at 10 min, 10 μmol/L [12]: 34.8%; inhibition at 10 min, 10 μmol/L [13]: 89%; inhibition at 25 min, 10 μmol/L [14]: 54%; selectivity for HDAC6 over other HDAC isoforms ([5]; HDAC6 vs other HDAC isoforms): > 119 fold; inhibition at 10 min, 10 μmol/L [15]: 36.3%; fraction unbound [16]: 0.006; inhibition at 10 min, 10 μmol/L [17]: 36.8%; logD at 1 h [18]: 3.4; Kp at 4 h ([19]; brain and plasma, Brain/plasma ratio, C57BL/6 mice, 4 h): 2.3; concentration at 0.5 h ([19]; brain): 48.5 ng/mL; concentration at 1 h ([19]; brain): 11.5 ng/mL; concentration at 4 h ([19]; brain): 0.82 ng/mL; concentration at 0.5 h ([19]; plasma): 1.32 ng/mL; concentration at 1 h ([19]; plasma): 0.72 ng/mL; concentration at 4 h ([19]; plasma): 0.35 ng/mL; half-life at 5 μM [20]: 32.4 min
